Patent publication US11414387B2, “Oxoacridinyl acetic acid derivatives and methods of use” (Stingthera, Inc., priority 2017, dated 2022)

Target: STING protein (Homo sapiens (Human), UniProt Q86WV6, H232R)
Test: Cell based reporter assay of IRF activation (IRF-luciferase), THP1-dual-KI R232
Conditions: read-out: THP1-dual-KI R232_IRF(Luciferase)_Activity Maximum measured (%)

Chain of STING protein (Q86WV6 whole entry H232R): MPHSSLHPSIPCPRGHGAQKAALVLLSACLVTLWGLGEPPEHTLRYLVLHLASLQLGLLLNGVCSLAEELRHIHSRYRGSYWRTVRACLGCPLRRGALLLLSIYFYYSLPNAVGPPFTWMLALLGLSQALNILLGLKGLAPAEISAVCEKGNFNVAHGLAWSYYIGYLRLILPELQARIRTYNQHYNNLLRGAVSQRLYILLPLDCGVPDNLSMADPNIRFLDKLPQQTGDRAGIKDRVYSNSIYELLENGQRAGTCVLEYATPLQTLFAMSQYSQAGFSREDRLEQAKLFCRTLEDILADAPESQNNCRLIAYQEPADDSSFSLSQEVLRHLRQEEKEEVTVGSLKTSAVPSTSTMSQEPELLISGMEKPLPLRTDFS

| Structure (SMILES) | Emax [%] |
| --- | --- |
| Cc1cccc(-c2ccc3c(=O)c4ccc(Cl)c(Cl)c4n(CC(=O)O)c3c2)c1 [Compound 151] | < 5 |
| CC(C)(C)c1ccc2c(=O)c3ccc(Cl)c(Br)c3n(CC(=O)O)c2c1 [Compound 176] | > 50 |
| O=C(O)Cn1c2cc(-c3ccc(O)cc3)ccc2c(=O)c2ccc(Cl)c(Cl)c21 [Compound 223] | < 5 |
| O=C(O)Cn1c2cc(Nc3cnccn3)ccc2c(=O)c2ccc(Cl)c(Cl)c21 [Compound 217] | > 50 |
| CC1(C)CCC(c2ccc3c(=O)c4ccc(Cl)c(Cl)c4n(CC(=O)O)c3c2)CC1 [Compound 160] | 5 to 25 |
| O=C(O)Cn1c2cc(C3CCCC3)ccc2c(=O)c2ccc(Cl)c(Cl)c21 [Compound 113] | 5 to 25 |
| COc1c(Cl)ccc2c(=O)c3ccc(C(C)(C)C)cc3n(CC(=O)O)c12 [Compound 204] | > 50 |
| CSc1c(Cl)ccc2c(=O)c3ccc(C(C)(C)C)cc3n(CC(=O)O)c12 [Compound 215] | > 50 |

More lines, now with the values ahead:

| Emax [%] | Structure (SMILES) |
| --- | --- |
| > 50 | O=C(O)Cn1c2cc(Nc3ccc(F)cc3)ccc2c(=O)c2ccc(Cl)c(Cl)c21 [Compound 218] |
| > 50 | O=C(O)Cn1c2cc(Nc3ccc(F)cc3F)ccc2c(=O)c2ccc(Cl)c(Cl)c21 [Compound 221] |
| > 50 | O=C(O)Cn1c2cc(C3CCCCC3)ccc2c(=O)c2ccc(Cl)c(Br)c21 [Compound 147] |
| > 50 | O=C(O)Cn1c2cc(NC3CCCCC3)ccc2c(=O)c2ccc(Cl)c(Br)c21 [Compound 110] |
| > 50 | COc1c(Cl)ccc2c(=O)c3ccc(C4CCCCC4)cc3n(CC(=O)O)c12 [Compound 220] |

Target: mSTING (Mus musculus, UniProt Q3TBT3)
Test: Radiometric filtration binding competition assay, mSTING
Conditions: not given

| Structure (SMILES) | IC50 [µM] |
| --- | --- |
| Cc1cccc(-c2ccc3c(=O)c4ccc(Cl)c(Cl)c4n(CC(=O)O)c3c2)c1 [Compound 151] | < 20 |
| CC(C)(C)c1ccc2c(=O)c3ccc(Cl)c(Br)c3n(CC(=O)O)c2c1 [Compound 176] | < 20 |
| O=C(O)Cn1c2cc(-c3ccc(O)cc3)ccc2c(=O)c2ccc(Cl)c(Cl)c21 [Compound 223] | < 20 |
| O=C(O)Cn1c2cc(Nc3cnccn3)ccc2c(=O)c2ccc(Cl)c(Cl)c21 [Compound 217] | < 20 |
| O=C(O)Cn1c2cc(C3CCCC3)ccc2c(=O)c2ccc(Cl)c(Cl)c21 [Compound 113] | < 20 |
| COc1c(Cl)ccc2c(=O)c3ccc(C(C)(C)C)cc3n(CC(=O)O)c12 [Compound 204] | < 20 |
| CSc1c(Cl)ccc2c(=O)c3ccc(C(C)(C)C)cc3n(CC(=O)O)c12 [Compound 215] | < 20 |

Now from value to molecule:

| IC50 [µM] | Structure (SMILES) |
| --- | --- |
| < 20 | O=C(O)Cn1c2cc(Nc3ccc(F)cc3)ccc2c(=O)c2ccc(Cl)c(Cl)c21 [Compound 218] |
| < 20 | O=C(O)Cn1c2cc(C3CCCCC3)ccc2c(=O)c2ccc(Cl)c(Br)c21 [Compound 147] |
| < 20 | O=C(O)Cn1c2cc(NC3CCCCC3)ccc2c(=O)c2ccc(Cl)c(Br)c21 [Compound 110] |
| 20 to 100 | COc1c(Cl)ccc2c(=O)c3ccc(C4CCCCC4)cc3n(CC(=O)O)c12 [Compound 220] |

Target: mSTING-R232 (Mus musculus, UniProt Q3TBT3)
Test: STING differential scanning fluorimetry (DSF) assay, mouse STING
Conditions: net shift in melting temperature
Description: (§1) A STING DSF assay was performed to determine protein thermostability shift in response to small molecule ligand binding. A STING thermostability shift assay based on differential scanning fluorimetry was used to measure (1) the net shift in melting temperature (ΔTm)between the apo and ligand-bound states of the STING protein and (2) the concentration of the thermal denaturation transition (EC50) as a surrogate measure of binding affinity (K). […] Protein in assay buffer was transferred to a 384 well plate and incubated with the hydrophobic fluorescent dye SYBR Orange. A temperature ramp was applied to the plate and the resulting dye fluorescence was plotted as a function of temperature. The first derivative of this function (dF/dT) was then used to extrapolate the melting temperature of the protein at various concentrations of compound and determine the thermal denaturation profile of a protein/compound complex.
(§2) • 1. Protein construct (affinity tag removal vs SUMO-fusion construct) • 2. Protein concentration • 3. Dye concentration • 4. Buffer • 5. Thermal ramp velocity • 6. DMSO tolerance • 7. Compound titration parameters • 8. […] 5 μM purified Target STING Protein • 3. 8 μM Sypro Orange Dye • 4. Buffer: 100 mM NaCl, 30 mM HEPES, pH 7.5 • 5. Thermal Ramp: 0.5° C./min • 6. <1% DMSO • 7. 11 point, 2 fold dilution, duplicate, 300 μM high concentrations • 8.

| Structure (SMILES) | MOUSE DSF_6xHIS-SUMO Tm Shift (° C.) |
| --- | --- |
| Cc1cccc(-c2ccc3c(=O)c4ccc(Cl)c(Cl)c4n(CC(=O)O)c3c2)c1 [Compound 151] | C (“C” = 5-15° C.) |
| CC(C)(C)c1ccc2c(=O)c3ccc(Cl)c(Br)c3n(CC(=O)O)c2c1 [Compound 176] | D (“D” > 15° C.) |
| CC1(C)CCC(c2ccc3c(=O)c4ccc(Cl)c(Cl)c4n(CC(=O)O)c3c2)CC1 [Compound 160] | D (“D” > 15° C.) |
| O=C(O)Cn1c2cc(C3CCCC3)ccc2c(=O)c2ccc(Cl)c(Cl)c21 [Compound 113] | D (“D” > 15° C.) |

Continued, values first:

| MOUSE DSF_6xHIS-SUMO Tm Shift (° C.) | Structure (SMILES) |
| --- | --- |
| D (“D” > 15° C.) | O=C(O)Cn1c2cc(Nc3ccc(F)cc3)ccc2c(=O)c2ccc(Cl)c(Cl)c21 [Compound 218] |
| D (“D” > 15° C.) | O=C(O)Cn1c2cc(C3CCCCC3)ccc2c(=O)c2ccc(Cl)c(Br)c21 [Compound 147] |
| D (“D” > 15° C.) | O=C(O)Cn1c2cc(NC3CCCCC3)ccc2c(=O)c2ccc(Cl)c(Br)c21 [Compound 110] |

Target: T1, hSTING-HAQ (Homo sapiens (Human), UniProt Q86WV6, G230A/H232R/R293Q)
Test: Radiometric filtration binding competition assay, hSTING-HAQ
Conditions: not given

T1 sequence (Q86WV6 140-379 G230A/H232R/R293Q): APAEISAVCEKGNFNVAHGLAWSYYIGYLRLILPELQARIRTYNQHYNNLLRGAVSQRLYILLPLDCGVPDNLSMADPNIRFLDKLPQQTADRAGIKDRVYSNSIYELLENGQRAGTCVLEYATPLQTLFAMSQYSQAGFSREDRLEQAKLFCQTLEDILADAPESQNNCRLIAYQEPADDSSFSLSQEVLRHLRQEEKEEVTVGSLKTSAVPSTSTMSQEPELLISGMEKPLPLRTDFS

| Structure (SMILES) | IC50 [µM] |
| --- | --- |
| Cc1cccc(-c2ccc3c(=O)c4ccc(Cl)c(Cl)c4n(CC(=O)O)c3c2)c1 [Compound 151] | 20 to 100 |
| CC(C)(C)c1ccc2c(=O)c3ccc(Cl)c(Br)c3n(CC(=O)O)c2c1 [Compound 176] | 20 to 100 |
| O=C(O)Cn1c2cc(-c3ccc(O)cc3)ccc2c(=O)c2ccc(Cl)c(Cl)c21 [Compound 223] | 20 to 100 |
| O=C(O)Cn1c2cc(Nc3cnccn3)ccc2c(=O)c2ccc(Cl)c(Cl)c21 [Compound 217] | 100 to 300 |
| COc1c(Cl)ccc2c(=O)c3ccc(C(C)(C)C)cc3n(CC(=O)O)c12 [Compound 204] | 20 to 100 |
| CSc1c(Cl)ccc2c(=O)c3ccc(C(C)(C)C)cc3n(CC(=O)O)c12 [Compound 215] | < 20 |

Other lines, results leading:

| IC50 [µM] | Structure (SMILES) |
| --- | --- |
| 20 to 100 | O=C(O)Cn1c2cc(Nc3ccc(F)cc3)ccc2c(=O)c2ccc(Cl)c(Cl)c21 [Compound 218] |
| 20 to 100 | O=C(O)Cn1c2cc(Nc3ccc(F)cc3F)ccc2c(=O)c2ccc(Cl)c(Cl)c21 [Compound 221] |
| 20 to 100 | O=C(O)Cn1c2cc(C3CCCCC3)ccc2c(=O)c2ccc(Cl)c(Br)c21 [Compound 147] |
| 20 to 100 | O=C(O)Cn1c2cc(NC3CCCCC3)ccc2c(=O)c2ccc(Cl)c(Br)c21 [Compound 110] |
| 20 to 100 | COc1c(Cl)ccc2c(=O)c3ccc(C4CCCCC4)cc3n(CC(=O)O)c12 [Compound 220] |

Target: hSTING-WT (Homo sapiens (Human), UniProt Q86WV6, H232R)
Test: Radiometric filtration binding competition assay, hSTING-WT
Conditions: not given

Chain of hSTING-WT (Q86WV6 140-379 H232R): as the sequence (Q86WV6 140-379 G230A/H232R/R293Q) above, with A91G, Q154R counted along it

| Structure (SMILES) | IC50 [µM] |
| --- | --- |
| Cc1cccc(-c2ccc3c(=O)c4ccc(Cl)c(Cl)c4n(CC(=O)O)c3c2)c1 [Compound 151] | 20 to 100 |
| CC(C)(C)c1ccc2c(=O)c3ccc(Cl)c(Br)c3n(CC(=O)O)c2c1 [Compound 176] | 20 to 100 |
| O=C(O)Cn1c2cc(-c3ccc(O)cc3)ccc2c(=O)c2ccc(Cl)c(Cl)c21 [Compound 223] | 20 to 100 |
| O=C(O)Cn1c2cc(Nc3cnccn3)ccc2c(=O)c2ccc(Cl)c(Cl)c21 [Compound 217] | 20 to 100 |
| CC1(C)CCC(c2ccc3c(=O)c4ccc(Cl)c(Cl)c4n(CC(=O)O)c3c2)CC1 [Compound 160] | 20 to 100 |
| O=C(O)Cn1c2cc(C3CCCC3)ccc2c(=O)c2ccc(Cl)c(Cl)c21 [Compound 113] | 20 to 100 |
| COc1c(Cl)ccc2c(=O)c3ccc(C(C)(C)C)cc3n(CC(=O)O)c12 [Compound 204] | < 20 |
| CSc1c(Cl)ccc2c(=O)c3ccc(C(C)(C)C)cc3n(CC(=O)O)c12 [Compound 215] | < 20 |

Next, values leading:

| IC50 [µM] | Structure (SMILES) |
| --- | --- |
| < 20 | O=C(O)Cn1c2cc(Nc3ccc(F)cc3)ccc2c(=O)c2ccc(Cl)c(Cl)c21 [Compound 218] |
| < 20 | O=C(O)Cn1c2cc(Nc3ccc(F)cc3F)ccc2c(=O)c2ccc(Cl)c(Cl)c21 [Compound 221] |
| < 20 | O=C(O)Cn1c2cc(C3CCCCC3)ccc2c(=O)c2ccc(Cl)c(Br)c21 [Compound 147] |
| < 20 | O=C(O)Cn1c2cc(NC3CCCCC3)ccc2c(=O)c2ccc(Cl)c(Br)c21 [Compound 110] |
| < 20 | COc1c(Cl)ccc2c(=O)c3ccc(C4CCCCC4)cc3n(CC(=O)O)c12 [Compound 220] |

Target: T1, hSTING-HAQ
Test: STING differential scanning fluorimetry (DSF) assay, HAQ human STING
Conditions: HAQ human STING aa140-379, net shift in melting temperature
Description: as §1, §2

| Structure (SMILES) | HAQ_DSF_hSWAT Tm Shift (° C.) |
| --- | --- |
| Cc1cccc(-c2ccc3c(=O)c4ccc(Cl)c(Cl)c4n(CC(=O)O)c3c2)c1 [Compound 151] | C (“C” = 2-7° C,) |
| CC(C)(C)c1ccc2c(=O)c3ccc(Cl)c(Br)c3n(CC(=O)O)c2c1 [Compound 176] | D (“D” > 7° C.) |
| O=C(O)Cn1c2cc(-c3ccc(O)cc3)ccc2c(=O)c2ccc(Cl)c(Cl)c21 [Compound 223] | D (“D” > 7° C.) |
| O=C(O)Cn1c2cc(Nc3cnccn3)ccc2c(=O)c2ccc(Cl)c(Cl)c21 [Compound 217] | D (“D” > 7° C.) |
| CC1(C)CCC(c2ccc3c(=O)c4ccc(Cl)c(Cl)c4n(CC(=O)O)c3c2)CC1 [Compound 160] | B (“B” = 0-2° C.) |
| O=C(O)Cn1c2cc(C3CCCC3)ccc2c(=O)c2ccc(Cl)c(Cl)c21 [Compound 113] | C (“C” = 2-7° C,) |
| COc1c(Cl)ccc2c(=O)c3ccc(C(C)(C)C)cc3n(CC(=O)O)c12 [Compound 204] | D (“D” > 7° C.) |
| CSc1c(Cl)ccc2c(=O)c3ccc(C(C)(C)C)cc3n(CC(=O)O)c12 [Compound 215] | D (“D” > 7° C.) |

Further lines, results first:

| HAQ_DSF_hSWAT Tm Shift (° C.) | Structure (SMILES) |
| --- | --- |
| D (“D” > 7° C.) | O=C(O)Cn1c2cc(Nc3ccc(F)cc3)ccc2c(=O)c2ccc(Cl)c(Cl)c21 [Compound 218] |
| D (“D” > 7° C.) | O=C(O)Cn1c2cc(Nc3ccc(F)cc3F)ccc2c(=O)c2ccc(Cl)c(Cl)c21 [Compound 221] |
| D (“D” > 7° C.) | O=C(O)Cn1c2cc(C3CCCCC3)ccc2c(=O)c2ccc(Cl)c(Br)c21 [Compound 147] |
| D (“D” > 7° C.) | O=C(O)Cn1c2cc(NC3CCCCC3)ccc2c(=O)c2ccc(Cl)c(Br)c21 [Compound 110] |
| D (“D” > 7° C.) | COc1c(Cl)ccc2c(=O)c3ccc(C4CCCCC4)cc3n(CC(=O)O)c12 [Compound 220] |

Target: hSTING-R232 (Homo sapiens (Human), UniProt Q86WV6, H232R)
Test: STING differential scanning fluorimetry (DSF) assay, WT human STING
Conditions: WT (R232) human STING aa140-379, net shift in melting temperature

Chain of hSTING-R232 (Q86WV6 140-379 H232R): as the sequence (Q86WV6 140-379 G230A/H232R/R293Q) above, with A91G, Q154R counted along it

| Structure (SMILES) | WT_DSF_hSWAT Tm Shift (° C.) |
| --- | --- |
| Cc1cccc(-c2ccc3c(=O)c4ccc(Cl)c(Cl)c4n(CC(=O)O)c3c2)c1 [Compound 151] | B (“B” = 0-2° C.) |
| CC(C)(C)c1ccc2c(=O)c3ccc(Cl)c(Br)c3n(CC(=O)O)c2c1 [Compound 176] | D (“D” > 7° C.) |
| O=C(O)Cn1c2cc(-c3ccc(O)cc3)ccc2c(=O)c2ccc(Cl)c(Cl)c21 [Compound 223] | C (“C” = 2-7° C,) |
| O=C(O)Cn1c2cc(Nc3cnccn3)ccc2c(=O)c2ccc(Cl)c(Cl)c21 [Compound 217] | D (“D” > 7° C.) |
| CC1(C)CCC(c2ccc3c(=O)c4ccc(Cl)c(Cl)c4n(CC(=O)O)c3c2)CC1 [Compound 160] | B (“B” = 0-2° C.) |
| O=C(O)Cn1c2cc(C3CCCC3)ccc2c(=O)c2ccc(Cl)c(Cl)c21 [Compound 113] | C (“C” = 2-7° C,) |
| COc1c(Cl)ccc2c(=O)c3ccc(C(C)(C)C)cc3n(CC(=O)O)c12 [Compound 204] | D (“D” > 7° C.) |
| CSc1c(Cl)ccc2c(=O)c3ccc(C(C)(C)C)cc3n(CC(=O)O)c12 [Compound 215] | D (“D” > 7° C.) |

Further lines, results first:

| WT_DSF_hSWAT Tm Shift (° C.) | Structure (SMILES) |
| --- | --- |
| D (“D” > 7° C.) | O=C(O)Cn1c2cc(Nc3ccc(F)cc3F)ccc2c(=O)c2ccc(Cl)c(Cl)c21 [Compound 221] |
| D (“D” > 7° C.) | O=C(O)Cn1c2cc(C3CCCCC3)ccc2c(=O)c2ccc(Cl)c(Br)c21 [Compound 147] |
| D (“D” > 7° C.) | O=C(O)Cn1c2cc(NC3CCCCC3)ccc2c(=O)c2ccc(Cl)c(Br)c21 [Compound 110] |
| D (“D” > 7° C.) | COc1c(Cl)ccc2c(=O)c3ccc(C4CCCCC4)cc3n(CC(=O)O)c12 [Compound 220] |
